Experimental findings from patent publication US20250382332A1, “NOVEL ALPHA-FACTOR BASED PEPTIDES WITH ANTIFUNGAL ACTIVITY” (INVAIO SCIENCES, INC., priority 2024, published 2025) are described below.

For the test, the system named is Botrytis cinerea (B05.10). The test can be described thus: Resazurin antifungal assay of 180 alpha-factor peptide variants towards Botrytis (Example 2). It counts as cell-based. As to conditions: % inhibition of fungal growth, Botrytis conidia, resazurin; for Inhibition at 10 μM: peptide 10 μM; for Inhibition at 15 μM: peptide 15 μM; for Inhibition at 20 μM: peptide 20 μM; for Inhibition at 50 μM: peptide 50 μM; for Inhibition at 100 μM: peptide 100 μM. The procedure, abridged: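 Resazurin viability read-out (570/620 nm fluorescence) after a 24 h, 20° C incubation of B05.10 conidia, 5000 per well, with peptide at final 10-100 μM. Growth inhibition (%) was derived by subtracting conidia-only fluorescence; four replicates per treatment.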
For orientation: Resazurin is reduced to fluorescent resorufin, in cell work by metabolically active cells.

Peptide text beside a SMILES is read from it.

Take `CC[C@H](C)[C@H](NC(=O)[C@H](CCCCN)NC(=O)[C@H](CC(C)C)NC(=O)[C@H](Cc1ccccc1)NC(=O)[C@H](Cc1c[nH]cn1)NC(=O)[C@@H](N)CCCCN)C(=O)N[C@@H](CCCCN)C(=O)N1CCC[C@H]1C(=O)NCC(=O)N[C@@H](CCC(N)=O)C(=O)N1CCC[C@H]1C(=O)N[C@@H](CCSC)C(=O)N[C@@H](Cc1ccc(O)cc1)C(=O)O` [compound 86] (H-KHFLKIKPGQPMY-OH; N-terminus and C-terminus assumed): the “Inhibition at 10 μM” value was under 90%, the “Inhibition at 15 μM” value was under 90%, the “Inhibition at 20 μM” value was 99.49% and the “Inhibition at 50 μM” value stood at 100%. The “Inhibition at 100 μM” value was found to be 100%.
Regarding `CSCC[C@H](NC(=O)[C@@H]1CCCN1C(=O)[C@H](CCC(N)=O)NC(=O)CNC(=O)[C@@H]1CCCN1C(=O)[C@H](CCCCN)NC(=O)[C@H](Cc1ccccc1)NC(=O)[C@H](CCCCN)NC(=O)[C@H](CC(C)C)NC(=O)[C@@H](NC(=O)[C@H](Cc1c[nH]cn1)NC(=O)[C@@H](N)CCCCN)C(C)C)C(=O)N[C@@H](Cc1ccc(O)cc1)C(=O)O` [compound 87] (H-KHVLKFKPGQPMY-OH; N-terminus and C-terminus assumed), the “Inhibition at 10 μM” value is under 90%, the “Inhibition at 15 μM” value is recorded as under 90%, the “Inhibition at 20 μM” value worked out at 98.89% and the “Inhibition at 50 μM” value was found to be 100%. Moreover, the “Inhibition at 100 μM” value is 100%.
As for `CSCC[C@H](NC(=O)[C@@H]1CCCN1C(=O)[C@H](CCC(N)=O)NC(=O)CNC(=O)[C@@H]1CCCN1C(=O)[C@H](CCCCN)NC(=O)[C@H](CC(C)C)NC(=O)[C@H](CCCNC(=N)N)NC(=O)[C@H](CC(C)C)NC(=O)[C@H](CC(C)C)NC(=O)[C@H](Cc1c[nH]cn1)NC(=O)[C@@H](N)CCCCN)C(=O)N[C@@H](Cc1ccc(O)cc1)C(=O)O` [compound 88] (H-KHLLRLKPGQPMY-OH; N-terminus and C-terminus assumed), the “Inhibition at 10 μM” value is recorded as under 90%, the “Inhibition at 20 μM” value is reported as under 90%, the “Inhibition at 50 μM” value amounted to 99.75% and the “Inhibition at 100 μM” value is listed as 100%.
On to `CC[C@H](C)[C@H](NC(=O)[C@H](CCCCN)NC(=O)[C@H](Cc1ccccc1)NC(=O)[C@H](CCC(=O)O)NC(=O)[C@H](CC(C)C)NC(=O)[C@H](CO)NC(=O)[C@H](Cc1c[nH]cn1)NC(=O)[C@@H](N)Cc1c[nH]c2ccccc12)C(=O)NCC(=O)N[C@@H](CCC(N)=O)C(=O)NCC(=O)N[C@@H](CCSC)C(=O)N[C@@H](Cc1ccc(O)cc1)C(=O)O` [compound 89] (H-WHSLEFKIGQGMY-OH; N-terminus and C-terminus assumed), for which the “Inhibition at 10 μM” value is under 90%, the “Inhibition at 20 μM” value was under 90%, the “Inhibition at 50 μM” value was 99.55% and the “Inhibition at 100 μM” value came to 100%.
On to `CC[C@H](C)[C@H](NC(=O)[C@H](CCC(N)=O)NC(=O)[C@H](CC(C)C)NC(=O)[C@H](Cc1ccccc1)NC(=O)[C@H](Cc1c[nH]cn1)NC(=O)[C@@H](N)Cc1c[nH]c2ccccc12)C(=O)N[C@@H](CCCCN)C(=O)N1CCC[C@H]1C(=O)NCC(=O)N[C@@H](CCC(N)=O)C(=O)NCC(=O)N[C@@H](CCSC)C(=O)N[C@@H](Cc1ccc(O)cc1)C(=O)O` [compound 90] (H-WHFLQIKPGQGMY-OH; N-terminus and C-terminus assumed), for which the “Inhibition at 10 μM” value was under 90%, the “Inhibition at 20 μM” value is listed as under 90%, the “Inhibition at 50 μM” value is reported as 99.27% and the “Inhibition at 100 μM” value is on record as 100%.
In the case of `CSCC[C@H](NC(=O)[C@@H]1CCCN1C(=O)[C@H](CCC(N)=O)NC(=O)CNC(=O)[C@H](CC(N)=O)NC(=O)[C@H](CCCCN)NC(=O)[C@H](CC(C)C)NC(=O)[C@H](CCCCN)NC(=O)[C@H](CC(C)C)NC(=O)[C@H](Cc1c[nH]c2ccccc12)NC(=O)[C@H](CCC(N)=O)NC(=O)[C@@H](N)CCCCN)C(=O)N[C@@H](Cc1ccc(O)cc1)C(=O)O` [compound 91] (H-KQWLKLKNGQPMY-OH; N-terminus and C-terminus assumed), the “Inhibition at 10 μM” value was under 90%, the “Inhibition at 20 μM” value is recorded as under 90%, the “Inhibition at 50 μM” value was 98.66% and the “Inhibition at 100 μM” value is on record as 100%.
`CSCC[C@H](NC(=O)[C@@H]1CCCN1C(=O)[C@H](CCC(N)=O)NC(=O)CNC(=O)[C@@H]1CCCN1C(=O)[C@H](CCCCN)NC(=O)[C@H](Cc1ccccc1)NC(=O)[C@H](CCCNC(=N)N)NC(=O)[C@H](CC(C)C)NC(=O)[C@@H](NC(=O)[C@H](Cc1c[nH]cn1)NC(=O)[C@@H](N)Cc1c[nH]c2ccccc12)[C@@H](C)O)C(=O)N[C@@H](Cc1ccc(O)cc1)C(=O)O` [compound 92] (H-WHTLRFKPGQPMY-OH; N-terminus and C-terminus assumed): the “Inhibition at 10 μM” value is given as under 90%, the “Inhibition at 20 μM” value was under 90%, the “Inhibition at 50 μM” value is listed as 98.44% and the “Inhibition at 100 μM” value turned out to be 98.95%.
`CSCC[C@H](NC(=O)[C@@H]1CCCN1C(=O)[C@H](CCC(N)=O)NC(=O)CNC(=O)[C@H](CCCNC(=N)N)NC(=O)[C@H](CCCCN)NC(=O)[C@H](CC(C)C)NC(=O)[C@H](CCC(N)=O)NC(=O)[C@H](CC(C)C)NC(=O)[C@@H](NC(=O)[C@H](Cc1c[nH]cn1)NC(=O)[C@@H](N)CCCCN)[C@@H](C)O)C(=O)N[C@@H](Cc1ccc(O)cc1)C(=O)O` [compound 93] (H-KHTLQLKRGQPMY-OH; N-terminus and C-terminus assumed): the “Inhibition at 10 μM” value is under 90%, the “Inhibition at 20 μM” value is given as under 90%, the “Inhibition at 50 μM” value came out at 97.77% and the “Inhibition at 100 μM” value stood at 100%.
In the case of `CSCC[C@H](NC(=O)[C@@H]1CCCN1C(=O)[C@H](CCC(N)=O)NC(=O)CNC(=O)[C@@H]1CCCN1C(=O)[C@H](CCCCN)NC(=O)[C@H](Cc1ccccc1)NC(=O)[C@H](CO)NC(=O)[C@H](CC(C)C)NC(=O)[C@H](Cc1ccc(O)cc1)NC(=O)[C@H](Cc1c[nH]cn1)NC(=O)[C@@H](N)CCCCN)C(=O)N[C@@H](Cc1ccc(O)cc1)C(=O)O` [compound 94] (H-KHYLSFKPGQPMY-OH; N-terminus and C-terminus assumed), the “Inhibition at 10 μM” value is under 90%, the “Inhibition at 20 μM” value was under 90%, the “Inhibition at 50 μM” value turned out to be 97.32% and the “Inhibition at 100 μM” value amounted to 100%.
`CSCC[C@H](NC(=O)[C@@H]1CCCN1C(=O)[C@H](CCC(N)=O)NC(=O)CNC(=O)[C@@H]1CCCN1C(=O)[C@H](CCCCN)NC(=O)[C@H](Cc1ccccc1)NC(=O)[C@@H](NC(=O)[C@H](CC(C)C)NC(=O)[C@H](CC(C)C)NC(=O)[C@H](Cc1c[nH]cn1)NC(=O)[C@@H](N)CCCCN)[C@@H](C)O)C(=O)N[C@@H](Cc1ccc(O)cc1)C(=O)O` [compound 95] (H-KHLLTFKPGQPMY-OH; N-terminus and C-terminus assumed): the “Inhibition at 10 μM” value is under 90%, the “Inhibition at 20 μM” value is under 90%, the “Inhibition at 50 μM” value came to 97.12% and the “Inhibition at 100 μM” value stood at 99.99%.
As for `CSCC[C@H](NC(=O)[C@@H]1CCCN1C(=O)[C@H](CCC(N)=O)NC(=O)CNC(=O)[C@@H]1CCCN1C(=O)[C@H](CCCCN)NC(=O)[C@H](CC(C)C)NC(=O)[C@@H](NC(=O)[C@H](CC(C)C)NC(=O)[C@H](Cc1ccccc1)NC(=O)[C@H](Cc1c[nH]cn1)NC(=O)[C@@H](N)CCCCN)[C@@H](C)O)C(=O)N[C@@H](Cc1ccc(O)cc1)C(=O)O` [compound 96] (H-KHFLTLKPGQPMY-OH; N-terminus and C-terminus assumed), the “Inhibition at 10 μM” value was under 90%, the “Inhibition at 20 μM” value was under 90%, the “Inhibition at 50 μM” value is recorded as 95.86% and the “Inhibition at 100 μM” value worked out at 99.87%.
With `CSCC[C@H](NC(=O)[C@@H]1CCCN1C(=O)[C@H](C)NC(=O)CNC(=O)[C@@H]1CCCN1C(=O)[C@H](CCCNC(=N)N)NC(=O)[C@H](Cc1ccccc1)NC(=O)[C@H](CCC(N)=O)NC(=O)[C@@H](NC(=O)[C@H](Cc1c[nH]c2ccccc12)NC(=O)[C@H](Cc1c[nH]cn1)NC(=O)[C@@H](N)Cc1c[nH]c2ccccc12)C(C)C)C(=O)N[C@@H](Cc1ccc(O)cc1)C(=O)O` [compound 97] (H-WHWVQFRPGAPMY-OH; N-terminus and C-terminus assumed), the “Inhibition at 10 μM” value was under 90%, the “Inhibition at 20 μM” value is recorded as under 90%, the “Inhibition at 50 μM” value came to 95.75% and the “Inhibition at 100 μM” value is reported as 100%.
In the case of `CSCC[C@H](NC(=O)[C@@H]1CCCN1C(=O)[C@H](CCC(N)=O)NC(=O)CNC(=O)[C@H](CC(N)=O)NC(=O)[C@H](CCCCN)NC(=O)[C@H](CC(C)C)NC(=O)[C@H](CO)NC(=O)CNC(=O)[C@H](Cc1c[nH]c2ccccc12)NC(=O)[C@H](CCCCN)NC(=O)[C@@H](N)Cc1c[nH]c2ccccc12)C(=O)N[C@@H](Cc1ccc(O)cc1)C(=O)O` [compound 98] (H-WKWGSLKNGQPMY-OH; N-terminus and C-terminus assumed), the “Inhibition at 10 μM” value is recorded as under 90%, the “Inhibition at 20 μM” value was under 90%, the “Inhibition at 50 μM” value stood at 95.59% and the “Inhibition at 100 μM” value is 100%.
Take `CC[C@H](C)[C@H](NC(=O)[C@H](CCCCN)NC(=O)[C@H](CC(C)C)NC(=O)[C@H](Cc1c[nH]c2ccccc12)NC(=O)[C@H](Cc1c[nH]cn1)NC(=O)[C@@H](N)Cc1c[nH]c2ccccc12)C(=O)N[C@@H](Cc1c[nH]c2ccccc12)C(=O)N1CCC[C@H]1C(=O)NCC(=O)N[C@@H](CCC(N)=O)C(=O)N1CCC[C@H]1C(=O)N[C@@H](CCSC)C(=O)N[C@@H](Cc1ccc(O)cc1)C(=O)O` [compound 99] (H-WHWLKIWPGQPMY-OH; N-terminus and C-terminus assumed): the “Inhibition at 10 μM” value is under 90%, the “Inhibition at 20 μM” value is on record as under 90%, the “Inhibition at 50 μM” value is 94.66% and the “Inhibition at 100 μM” value is listed as 100%.

The term Inhibition denotes the share of the control response that was lost under treatment.
